Assay results from article PMC9120017, “Inhibition mechanism of the chloride channel TMEM16A by the pore blocker 1PBC” (Nature Communications, 2022).
Read-outs that look alike come from different tables or passages of the source.

Biological target: T1, mouse TMEM16A mutant Y514A (Mus musculus, UniProt Q8BHY3, Y514A)
T1 construct: expressed in transfected cells; host or cells: HEK293T
T1 sequence (Q8BHY3 1-960 Y514A): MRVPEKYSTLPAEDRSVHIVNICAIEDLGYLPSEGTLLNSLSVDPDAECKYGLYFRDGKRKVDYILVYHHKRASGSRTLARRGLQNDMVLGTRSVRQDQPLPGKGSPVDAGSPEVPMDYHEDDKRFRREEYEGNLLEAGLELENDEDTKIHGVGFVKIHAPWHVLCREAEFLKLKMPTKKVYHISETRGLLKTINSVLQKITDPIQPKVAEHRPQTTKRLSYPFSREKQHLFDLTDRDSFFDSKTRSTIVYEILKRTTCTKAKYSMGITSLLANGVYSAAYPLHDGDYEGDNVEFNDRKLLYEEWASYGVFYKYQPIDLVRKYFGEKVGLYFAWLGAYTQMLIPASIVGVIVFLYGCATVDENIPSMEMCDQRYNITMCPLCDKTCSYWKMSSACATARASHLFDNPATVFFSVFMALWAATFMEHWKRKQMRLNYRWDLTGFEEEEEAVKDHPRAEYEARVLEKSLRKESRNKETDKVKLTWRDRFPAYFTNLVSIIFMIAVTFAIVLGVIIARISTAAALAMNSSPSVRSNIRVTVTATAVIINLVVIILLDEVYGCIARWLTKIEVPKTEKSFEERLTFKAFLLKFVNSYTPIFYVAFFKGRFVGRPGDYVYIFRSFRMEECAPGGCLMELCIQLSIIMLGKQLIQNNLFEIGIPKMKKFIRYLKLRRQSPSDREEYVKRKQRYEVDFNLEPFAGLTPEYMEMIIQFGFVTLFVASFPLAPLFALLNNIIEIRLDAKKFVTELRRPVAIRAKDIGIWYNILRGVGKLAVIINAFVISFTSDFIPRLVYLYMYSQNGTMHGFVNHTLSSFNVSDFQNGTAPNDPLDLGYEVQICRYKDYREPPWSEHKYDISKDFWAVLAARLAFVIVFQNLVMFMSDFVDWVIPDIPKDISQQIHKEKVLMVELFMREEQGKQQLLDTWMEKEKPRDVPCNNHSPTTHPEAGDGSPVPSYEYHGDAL
Test: Inside-out patch recording of 1PBC block, mutant Y514A
Assay type: cell-based
Conditions: for remaining activity at 10 µM: 1PBC 10; for remaining activity at 10 µM / remaining activity at 30 µM / remaining activity at 100 µM: read-out: fraction of unblocked current; for remaining activity at 30 µM: 1PBC 30; for remaining activity at 100 µM: 1PBC 100
Description: HEK293T cells (ATCC CRL-1573) were maintained in Dulbecco’s modified Eagle’s medium (DMEM; Sigma-Aldrich) supplemented with 10 U ml^−1 penicillin, 0.1 mg ml^−1 streptomycin (Sigma-Aldrich), 2 mM L-glutamine (Sigma-Aldrich), and 10% FBS (Sigma-Aldrich) in a humidified atmosphere containing 5% CO2 at 37 °C. HEK293S GnTI^− cells (ATCC CRL-3022) were maintained in HyClone HyCell TransFx-H medium (GE Healthcare) supplemented with 10 U ml^−1 penicillin, 0.1 mg ml^−1 streptomycin, 4 mM L-glutamine, 0.15% poloxamer 188 (Sigma-Aldrich), and 1% FBS in an atmosphere containing 5% CO2 at 185 rpm at 37 °C. The ac splice variant of mouse TMEM16A (UniProt ID: Q8BHY3), mouse TMEM16B (UniProt ID: Q8CFW1), or mouse TMEM16F (UniProt ID: Q6P9J9) bearing a 3C cleavage site, a Venus YFP, a Myc tag, and a Streptavidin-binding peptide (SBP) downstream of the open reading frame in a modified pcDNA3.1 vector (Invitrogen) were used as described previously[21],[31]. Mutations were introduced using a modified QuikChange method[58] and were verified by sequencing.
HEK293T cells were transfected with 3–4 μg DNA per 6 cm Petri dish using the calcium phosphate co-precipitation method and were used within 24–96 h after transfection. Recordings were performed on inside-out patches excised from HEK293T cells expressing the construct of interest. Patch pipettes were pulled from borosilicate glass capillaries (O.D. 1.5 mm, I.D. 0.86 mm, Sutter Instrument) and were fire-polished with a microforge (Narishige) before use. Pipette resistance was typically 3–8 MΩ when filled with the recording solutions detailed below. Seal resistance was typically 4 GΩ or higher. Voltage-clamp recordings were made using Axopatch 200B, Digidata 1550, and Clampex 10.7 (Molecular Devices). Analog signals were filtered with the in-built 4-pole Bessel filter at 10 kHz and were digitized at 20 kHz. Solution exchange was achieved using a gravity-fed system through a theta glass pipette mounted on an ultra-fast piezo-driven stepper (Siskiyou). […] All recordings were performed at 20 °C.
A symmetrical ionic condition was used throughout. Stock solution with Ca^2+-EGTA contained 150 mM NaCl, 5.99 mM Ca(OH)2, 5 mM EGTA, and 10 mM HEPES at pH 7.40. Stock solution with EGTA contained 150 mM NaCl, 5 mM EGTA, and 10 mM HEPES at pH 7.40. Free Ca^2+ concentrations were adjusted by mixing the stock solutions at the required ratios calculated using the WEBMAXC program (http://web.stanford.edu/~cpatton/webmaxcS.htm). Patch pipettes were filled with the stock solution with Ca^2+-EGTA, which has a free Ca^2+ concentration of 1 mM. 1PBC (ChemBridge) stock was reconstituted in anhydrous DMSO (Sigma-Aldrich) at 100 mM and stored at −20 °C. Working solutions with 1PBC were prepared by serial dilution. Unless otherwise stated, experiments were performed at a saturating Ca^2+ concentration as shown in Supplementary Table 1 and the primary data were corrected for current rundown as described previously[21],[25].
Concentration-response relations, obtained from the ratio of the I-V plots before and after the application of the blocker, were fitted to the Hill equation,1 I/Imax=1/1+IC50/[blocker]^h where I/Imax is the normalized current responses, IC50 defines the concentration at which inhibition is at its half-maximum, and h is the Hill coefficient.

N#Cc1c(C(F)(F)F)cc(O)n2c1nc1ccccc12 [1PBC]
IC50 (0 mV, 2 µM Ca2+): 22.8 µM | remaining activity at 10 µM (0 mV): 71.6% | remaining activity at 10 µM (20 mV): 67.7% | remaining activity at 10 µM (40 mV): 65.8% | remaining activity at 10 µM (60 mV): 59.8% | remaining activity at 10 µM (80 mV): 58.2% | remaining activity at 10 µM (100 mV): 57.1% | remaining activity at 10 µM (120 mV): 53.3% | remaining activity at 10 µM (140 mV): 53.7% | remaining activity at 10 µM (-20 mV): 75.5% | remaining activity at 10 µM (-40 mV): 78.8% | remaining activity at 10 µM (-60 mV): 81.3% | remaining activity at 10 µM (-80 mV): 82.9% | remaining activity at 10 µM (-100 mV): 85.5% | remaining activity at 10 µM (-120 mV): 87.1% | remaining activity at 10 µM (-140 mV): 86.2% | remaining activity at 30 µM (0 mV): 41% | remaining activity at 30 µM (20 mV): 37.8% | remaining activity at 30 µM (40 mV): 34.4% | remaining activity at 30 µM (60 mV): 31.9% | remaining activity at 30 µM (80 mV): 28.9% | remaining activity at 30 µM (100 mV): 27.6% | remaining activity at 30 µM (120 mV): 26.5% | remaining activity at 30 µM (140 mV): 26.4% | remaining activity at 30 µM (-20 mV): 44.3% | remaining activity at 30 µM (-40 mV): 50% | remaining activity at 30 µM (-60 mV): 56.5% | remaining activity at 30 µM (-80 mV): 60.4% | remaining activity at 30 µM (-100 mV): 64.5% | remaining activity at 30 µM (-120 mV): 67.9% | remaining activity at 30 µM (-140 mV): 70.2% | remaining activity at 100 µM (0 mV): 19.2% | remaining activity at 100 µM (20 mV): 15.9% | remaining activity at 100 µM (40 mV): 14.2% | remaining activity at 100 µM (60 mV): 13.7% | remaining activity at 100 µM (80 mV): 12.7% | remaining activity at 100 µM (100 mV): 11.3% | remaining activity at 100 µM (120 mV): 11.7% | remaining activity at 100 µM (140 mV): 12.2% | remaining activity at 100 µM (-20 mV): 22.6% | remaining activity at 100 µM (-40 mV): 25.4% | remaining activity at 100 µM (-60 mV): 29.3% | remaining activity at 100 µM (-80 mV): 32.8% | remaining activity at 100 µM (-100 mV): 38% | remaining activity at 100 µM (-120 mV): 42.9% | remaining activity at 100 µM (-140 mV): 48.1% | IC50 (20 mV, 2 µM Ca2+): 19.4 µM | IC50 (40 mV, 2 µM Ca2+): 17.3 µM | IC50 (60 mV, 2 µM Ca2+): 14.6 µM | log-fold IC50 (change of mutant vs WT) (80 mV): 0.6902 | IC50 (80 mV, 2 µM Ca2+): 13.3 µM | IC50 (100 mV, 2 µM Ca2+): 12.5 µM | IC50 (120 mV, 2 µM Ca2+): 11.3 µM | IC50 (140 mV, 2 µM Ca2+): 11.5 µM | IC50 (-20 mV, 2 µM Ca2+): 26.9 µM | IC50 (-40 mV, 2 µM Ca2+): 32.7 µM | IC50 (-60 mV, 2 µM Ca2+): 40.6 µM | IC50 (-80 mV, 2 µM Ca2+): 47.4 µM | IC50 (-100 mV, 2 µM Ca2+): 58 µM | IC50 (-120 mV, 2 µM Ca2+): 69.6 µM | IC50 (-140 mV, 2 µM Ca2+): 81 µM | IC50 (Y514A, V 0 mV): 22.8 µM | IC50 (Y514A, V 20 mV): 19.4 µM | IC50 (Y514A, V 40 mV): 17.3 µM | IC50 (Y514A, V 60 mV): 14.6 µM | IC50 (Y514A, V 80 mV): 13.3 µM | IC50 (Y514A, V 100 mV): 12.5 µM | IC50 (Y514A, V 120 mV): 11.3 µM | IC50 (Y514A, V 140 mV): 11.5 µM | IC50 (Y514A, V -20 mV): 26.9 µM | IC50 (Y514A, V -40 mV): 32.7 µM | IC50 (Y514A, V -60 mV): 40.6 µM | IC50 (Y514A, V -80 mV): 47.4 µM | IC50 (Y514A, V -100 mV): 58 µM | IC50 (Y514A, V -120 mV): 69.6 µM | IC50 (Y514A, V -140 mV): 81 µM
